# Experimental data as given in patent US12491182B2, “Polymorphs of triazole antifungal compound PC945” (Pulmocide Limited, priority 2019, dated 2025).
# “And” between values parts separate entries of the source, which are not always exact repeats. Equal values may be shown once.
# What was measured:
# [1] = Thermo-gravimetric analysis (degradation onset); format: physicochemical
# Procedure: TGA data were collected on a TA Instrument Q500 TGA, equipped with a 16 position auto-sampler. The instrument was temperature calibrated using certified Alumel and Nickel. Typically 5-10 mg of sample was loaded onto a pre-tared aluminium DSC pan and heated at 10° C./min from ambient temperature to 350° C. A nitrogen purge at 60 mL/min was maintained over the sample. The instrument control software was Advantage for Q Series v2.5.0.256 and Thermal Advantage v5.5.3 and the data were analysed using Universal Analysis v4.5A.
# TGA profiling was carried out according to methods described above and was used to determine the amount of residual solvents associated with the polymorphs of Compound I. In addition, it was used to measure the quantity of solvent released on heating from the solvated forms of Compound I. Typical residual solvent levels found in samples of the polymorphs of Compound I are as follows.
# [2] = Comparative pharmacokinetic profiling of Forms 1 and 2 by inhalation administration to rats; format: in vivo, male RccHan:WIST rat; conditions: male rats; for Drug Concentration in Animal by No. (plasma) / Drug Concentration Mean (plasma): nominal 2.2 mg/kg; for Drug Concentration in Animal by No. (plasma): individual animals; for Drug Concentration Mean (plasma): group mean
# Description: A study was undertaken to compare the time-course of unchanged drug concentrations in plasma following a single inhalation dose of either Form 1 or Form 2 in rats.
# The male RccHan™:WIST rat was considered a suitable species and strain because of its acceptance by regulatory agencies. The inhalation route of administration was chosen to simulate the conditions of clinical administration. A total of 14 of animals (six animals per group with two spare animals), 10 to 12 weeks of age and weighing 306 to 341 g at the start of drug treatment, were used in the study. Treatment consisted of a single 2 hour inhalation exposure with a nebulised formulation of either micronised Form 1 (98.94% purity) to Group 1 animals or micronised Form 2 (98.10% purity) to Group 2 animals. The pharmacokinetic parameters of the two polymorphic forms were determined to support pharmacology and toxicology studies in animals and clinical studies in man.
# Suspensions were manufactured by first preparing a concentrated solution of the surfactants (wetting solution) and a saline solution. These were then used to make the vehicle. A saline solution was prepared as follows. Sodium chloride (50 g) was weighed into a 5000 mL volumetric flask, made up to volume with water, stirred with a magnetic stirrer for 10 min and then passed through a 0.22 μm membrane filter. Wetting solution was prepared as follows. Lipoid S100 (10 g) was weighed into a 2000 mL Duran bottle, 1000 g of propylene glycol was added and the mixture was stirred on a Silverson mixer equipped with a 1″ high shear screen for 1 min at 8000 rpm and then passed through a 0.22 μm membrane filter. Vehicle was prepared as follows. The wetting solution (500 mL) was transferred into a 5000 mL volumetric flask, made to volume with saline solution, stirred with a magnetic stirrer for 10 min and then passed through a 0.22 μm membrane filter.
# A 1000 mL batch of 4 mg/mL suspension of Compound I was prepared as follows. Compound I (4.00 g) was weighed into a small beaker, 100 mL of wetting solution was added and the mixture was stirred with a Silverson mixer equipped with a 1″ high shear screen for 5 min at 8000 rpm. The mixture was then transferred into a 5000 mL Duran bottle using saline solution and stirred using a Silverson mixer equipped with a 1″ high shear screen for 5 min at 8000 rpm, after which it was stored between 2 and 8° C. Higher or lower strength suspensions (range 0.2 to 20 mg/mL) were prepared by adjusting the input weight of API as appropriate for higher mg/mL suspensions or by further diluting with vehicle for lower mg/mL suspensions. All formulations were magnetically stirred for at least 30 min, and assessed visually prior to administration.
# Rats were acclimatised to the inhalation dosing procedure for three consecutive days prior to dosing. Animals were treated with the test substance by aerosol inhalation administration for 120 min via snout only exposure, at a target aerosol concentration of 25.2 μg/L. The estimations of inhaled dose from an exposure duration of 2 hr and an assumed body weight of 300 g were calculated using the formula:
# [formula] where: C is the aerosol concentration (μg/L); RMV is the respiratory minute volume (L/min); D is the duration of exposure (120 mins) and BW is the group mean body weight (kg). The mean achieved aerosol concentrations, estimated inhaled dose and particle size distribution (PSD) summary data are presented below. (Table 14).
# Venous blood samples (0.3 mL) were taken from the tail vein of animals and samples collected after dosing (2 hr from the start of dose administration) and thereafter at times 3, 4, 6, 8, 12, 24, 28, 32, 36 and 48 hr following treatment. Samples were treated with K2EDTA anticoagulant, spun at 2000 g for 10 min at 4° C. and then stored frozen (−20° C.±10) whilst awaiting analysis. Plasma samples were subsequently analysed for Compound I by LGC using a validated LC-MS/MS method. […]
# [3] = inhalation, IAD (immediately after dosing)
smiles,measurement,setting,value
"Cc1cc(N2CCN(c3ccc(C(=O)Nc4ccc(F)cc4)cc3)CC2)ccc1OC[C@@H]1CO[C@@](Cn2cncn2)(c2ccc(F)cc2F)C1 [Form 2, 4-(4-(4-(((3R,5R)-5-((1H-1,2,4-triazol-1-yl)methyl)-5-(2,4-difluorophenyl)tetrahydrofuran-3-yl)methoxy)-3-methylphenyl)piperazin-1-yl)-N-(4-fluorophenyl)benzamide]",temperature at which sample begun to degrade (TGA),[1]; material isolated from MIBK,320 °C
same,temperature at which degradation started (TGA),[1]; sample derived from EtOH,320 °C
same,"dose normalised AUCt, fold higher than Form 1",[2]; inhalation,1.7 fold
same,Drug Concentration in Animal by No. (plasma),"[2]; inhalation, 3 hr from start of exposure",8.95 ng/mL and 5.40 ng/mL and 6.01 ng/mL
same,Drug Concentration Mean (plasma),"[2]; inhalation, 3 hr",6.79 ng/mL
same,Drug Concentration in Animal by No. (plasma),"[2]; inhalation, 4 hr from start of exposure",7.53 ng/mL and 9.31 ng/mL and 8.88 ng/mL
same,Drug Concentration Mean (plasma),"[2]; inhalation, 4 hr",8.57 ng/mL
same,Drug Concentration in Animal by No. (plasma),"[2]; inhalation, 6 hr from start of exposure",11.8 ng/mL and 5.38 ng/mL
same,Drug Concentration Mean (plasma),"[2]; inhalation, 6 hr",8.59 ng/mL
same,Drug Concentration in Animal by No. (plasma),"[2]; inhalation, 8 hr from start of exposure",6.85 ng/mL and 5.90 ng/mL and 6.79 ng/mL
same,Drug Concentration Mean (plasma),"[2]; inhalation, 8 hr",6.51 ng/mL
same,Drug Concentration in Animal by No. (plasma),"[2]; inhalation, 12 hr from start of exposure",10.7 ng/mL and 4.57 ng/mL and 5.84 ng/mL
same,Drug Concentration Mean (plasma),"[2]; inhalation, 12 hr",7.04 ng/mL
same,Drug Concentration in Animal by No. (plasma),"[2]; inhalation, 24 hr from start of exposure",11.5 ng/mL
same,Drug Concentration in Animal by No. (plasma),"[2]; inhalation, 28 hr from start of exposure",8.15 ng/mL and 3.17 ng/mL and 3.32 ng/mL and 4.15 ng/mL and 2.94 ng/mL and 2.93 ng/mL
same,Drug Concentration Mean (plasma),"[2]; inhalation, 28 hr",4.11 ng/mL
same,Drug Concentration in Animal by No. (plasma),"[2]; inhalation, 32 hr from start of exposure",7.72 ng/mL and 3.50 ng/mL and 3.33 ng/mL and 4.05 ng/mL and 2.75 ng/mL and 2.51 ng/mL
same,Drug Concentration Mean (plasma),"[2]; inhalation, 32 hr",3.98 ng/mL
same,Drug Concentration in Animal by No. (plasma),"[2]; inhalation, 36 hr from start of exposure",6.28 ng/mL and 2.43 ng/mL (2×) and 2.54 ng/mL and 3.59 ng/mL and 2.49 ng/mL
same,Drug Concentration Mean (plasma),"[2]; inhalation, 36 hr",3.29 ng/mL
same,Drug Concentration in Animal by No. (plasma),"[2]; inhalation, 48 hr from start of exposure",3.78 ng/mL and 1.79 ng/mL and 1.89 ng/mL and 2.52 ng/mL and 1.83 ng/mL and 1.91 ng/mL
same,Drug Concentration Mean (plasma),"[2]; inhalation, 48 hr",2.29 ng/mL
same,Drug Concentration Mean (plasma),[2]; [3],2.66 ng/mL
same,Drug Concentration in Animal by No. (plasma),[2]; [3],2.24 ng/mL and 2.59 ng/mL and 3.15 ng/mL
same,AUCt dose normalised,"[2]; inhalation, AUCt of Form 2 normalised to dose achieved for Form 1 (2.48 mg/kg), 2.48 mg/kg",202 ng·h/mL
same,time up to which plasma concentrations remained quantifiable,"[2]; inhalation, after the start of exposure (last sampling time)",48 h
same,Cmax (maximum mean plasma concentration),"[2]; single 2 hr inhalation of nebulised aqueous suspension, nominal dose 2.2 mg/kg, 2.2 mg/kg",8.59 ng/mL
same,AUCt,"[2]; single 2 hr inhalation, nominal dose 2.2 mg/kg, 0-48 hr, 2.2 mg/kg",230 ng·h/mL
same,Tmax,"[2]; single 2 hr inhalation, nominal dose 2.2 mg/kg, from start of exposure",6 h
